Consider 5 compounds from paper PMC9501356, “New Sulfamethoxazole Derivatives as Selective Carbonic Anhydrase IX and XII Inhibitors: Design, Synthesis, Cytotoxic Activity and Molecular Modeling” (Pharmaceuticals, 2022).

In brackets after ≈: the same amount, converted by molar mass. Read-outs that look alike come from different tables or passages of the source.

In series [1] the target is T1, hCA II (Homo sapiens, UniProt P00918).
T1 construct: purchased BPS bioscience (CA, USA)
Put plainly: CAII inhibitory assay (p-nitrophenyl acetate). The format is biochemical. To be noted: average ± SEM, three independent experiments; read-out: Carbonic Anhydrase IC50 (uM) hCA II. How it is done: CAII was assayed following the manufacturer’s instruction and reported method (Supplementary Material Section S2) (Table 2). […]
(§1) Carbonic Anhydrase (CA) catalyzes the reversible reaction of CO2 +
(§2) H2O = HCO3- + H+. […]
(§3) 400 nm[40] and the activity was calculated using the following equation: […]
= HCO3- + H+. […]
(§4) 96 well plate. […]
(§5) 400 nm[41] and the activity was calculated using the following equation: […]
S2.2.5. CAII inhibitory assay
CAII was assayed following the manufacturer’s instruction. A amount
of 1,400 pmol/min/µg assay mixture containing 100 mM NaCl, 15 mM Tris-

The target in series [2] is T2, recombinant Human Carbonic Anhydrase I (Homo sapiens, UniProt P00915).
T2 construct: purchased R and D system (MN, USA)
Nature of the series: CA1 inhibitory assay (4-nitrophenyl acetate esterase). Type of series: biochemical. To be noted: average ± SEM, three independent experiments; read-out: Carbonic Anhydrase IC50 (uM) hCA I. On the procedure: The hCA I was assayed following the manufacturer’s instruction and reported method (Supplementary Material Section S2) (Table 2). […]
as §1
H2O = HCO3- + H+. Carbonic Anhydrase I (CAI) was measured following the manufacturer’s instruction. […]
as §3
S2.2.4. CA1 inhibitory assay
(§6) Carbonic Anhydrase (CA) cataly zes the reversible reaction of CO2 + H2O = HCO3- + H+. Carbonic Anhydrase I (CAI) was measured following the […]
Tris, 75 mM NaCl, pH 7.5). The substrate (4-Nitroph enyl acetate, 4NPA, 100 mM stock in acetone) was diluted in 2 mM in assay buffer. The reaction was started by adding 50 µL of 2 mM substrate with 50 µL of 100 ng/µL rhCAI in […]
as §4, §5

Series [3] addresses T3, hCA IX (Homo sapiens, UniProt Q16790).
T3 construct: purchased BPS bioscience (CA, USA)
Nature of the series: hCA IX inhibitory assay. Type of series: biochemical. Particulars: average ± SEM, three independent experiments; read-out: Carbonic Anhydrase (IC50, nM) CA-IX. How it is done: The hCA IX was assayed following the manufacturer’s instruction and reported method. (Table 1, Figure 3A,B) (Supplementary Material Section S2). […]
mixture was incubated for 30 min at room temperature and the absorbance was measured at 405nm.
(§7) S2.2.3. hCAXII inhibitory assay
as §1
H2O = HCO3- + H+. Carbonic Anhydrase I (CAI) was measured following the manufacturer’s instruction. In brief, recombinant Human
Carbonic Anhydrase XII (rh CAXII) was diluted to […] in assay buffer (12.5 mM Tris, 75 mM NaCl, pH 7.5). The substrate (4-Nitrophenyl acetate, 4NPA, 100 mM stock in acetone) was diluted in 2 mM in assay buffer. The reaction was started by adding 50 µL of 2 mM substrate with 50 µL of 20 ng/µL rhCAXII in 96 well plate. Substrate blank containing 50 µL of assay buffer and 50 µL of substrate was included. The kinetics for 5 min of the reaction mixtures were measured at wavelength of 400 nm[40] and the activity was calculated using the following equation: […]
as §6, §5
CAII was assayed following the manufacturer’s instruction. […] Incubate for 30 min at RT and the resulted absorbance was measured at 405 nm. […]

Series [4] can be described thus: MTT cytotoxicity assay on MCF10a. Particulars: human, MCF10a normal breast cells, MCF10a normal breast cell line. Type of series: cell-based. How it is done:
(§8) Suppling, specification and incubation of MCF7 and MCF10a cell lines were carried out according to the method mentioned in detail in Supplementary Material Section S2.
(§9) MTT assay is a method used for in vitro cytotoxicity of different compounds. The method details are illustrated in Supplementary Material Section S2. […]
(§10) Carbonic Anhydrase (CA) catalyzes the reversible reaction of CO2 + […]
as §2
(§11) 400 nm[40] and the activity was calculated using the following equation: […] = HCO3- + H+. […]
as §4, §5
(§12) S2.2.6. Cell culture Protocol
(§13) MCF7 and MCF10a cell lines were obtained from American Type
(§14) Culture Collection, the cultured cells were grown using DMEM
(§15) (Invitrogen/Life Technologies) in 10% fetal bovine serum (FBS), 10 μg/ml of insulin (Sigma), and 1% penicillin-streptomycin antibiotics. Other chemicals and reag ents were from ob tained f rom S igma or In vitrogen. Cells d en sity was 1.2 – 1.8 × 10^3 cells/well in a volume of 100 µl complete growth medium + 100 μl of the tested compound/well in a 96-well plate for 24 hours performing […]
(§16) assay. After treatment of cells with the serial concentrations of the tested compounds, incubation for 48 h at 37 °C is carried out.
(§17) S2.2.7. MTT – Cytotoxicity assay protocol
(§18) MTT assay is a method used for in vitro cytotoxicity of different compounds. MTT vial was reconstituted in 3 ml growth media and diluted
(§19) MTT in an amount equal to 10% of the culture medium volume. After 4hrs incubation of the reagent with the treated MCF7 and MCF10a cells, culture media was removed from incubator and dissolve the resulting formazan crystals by adding an amount of MTT solubilizing solution equal volume with the original culture medium.
On the technique in general: Tetrazolium dyes change colour on reduction, which living cells bring about.

For series [5], the system named is MCF7 cells. Nature of the series: MTT cytotoxicity assay on MCF7 (hypoxia and normoxia). Type of series: cell-based. Particulars: Homo sapiens. How it is done: as §8, §9, §10, §2, §11, §4, §5, §12, §13, §14, §15, §16, §17
MTT assay is a method used for in vitro cytotoxicity of different compounds. […]

Series [6] relates to MCF10a cells. Nature of the series: MTT cytotoxicity assay on MCF10a. To be noted: MCF10a normal breast cell line. The format is cell-based. How it is done: as §8, §9, §10, §2, §11, §4, §5, §12, §13, §14, §15, §16, §17, §18, §19
Series [7] has as its target T4, recombinant Human Carbonic Anhydrase XII (Homo sapiens, UniProt O43570).
T4 construct: purchased R and D system (MN, USA)
Put plainly: hCA XII inhibitory assay (4-nitrophenyl acetate esterase). The format is biochemical. To be noted: average ± SEM, three independent experiments; read-out: Carbonic Anhydrase (IC50, nM) CA-XII. How it is done: mixture was incubated for 30 min at room temperature and the absorbance […]
as §7, §1
H2O = HCO3- + H+. Carbonic Anhydrase I (CAI) was measured following the manufacturer’s instruction. In brief, recombinant Human […]
mM Tris, 75 mM NaCl, pH 7.5). The substrate (4-Nitrophenyl acetate, 4NPA, 100 mM stock in acetone) was diluted in 2 mM in assay buffer. The reaction was started by adding 50 µL of 2 mM substrate with 50 µL of 20 ng/µL rhCAXII in 96 well plate. Substrate blank containing 50 µL of assay buffer and 50 µL of substrate was included. The kinetics for 5 min of the reaction mixtures were measured at wavelength of 400 nm[40] and the activity was calculated using the following equation:
Specific Activity (pmol/min/µg) = Adjusted Vmax (OD/ mi n) x Conver sion Factor (pmol /OD) amount of enzyme (µg) S2.2.4. CA1 inhibitory assay
as §6
Tris, 75 mM NaCl, pH 7.5). The substrate (4-Nitroph enyl acetate, 4NPA, 100 mM stock in acetone) was diluted in 2 mM in assay buffer. The reaction was started by adding 50 µL of 2 mM substrate with 50 µL of 100 ng/µL rhCAI in 96 well plate. […]
as §5

T2 sequence (P00915 whole entry): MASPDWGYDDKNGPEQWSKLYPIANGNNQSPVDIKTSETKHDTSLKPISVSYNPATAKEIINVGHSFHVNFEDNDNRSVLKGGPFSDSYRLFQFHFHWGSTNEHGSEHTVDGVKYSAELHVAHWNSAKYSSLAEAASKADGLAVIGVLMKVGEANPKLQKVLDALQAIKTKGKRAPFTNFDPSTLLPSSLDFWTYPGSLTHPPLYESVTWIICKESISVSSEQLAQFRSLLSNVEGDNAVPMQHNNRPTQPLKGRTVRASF
T4 sequence (O43570 25-354): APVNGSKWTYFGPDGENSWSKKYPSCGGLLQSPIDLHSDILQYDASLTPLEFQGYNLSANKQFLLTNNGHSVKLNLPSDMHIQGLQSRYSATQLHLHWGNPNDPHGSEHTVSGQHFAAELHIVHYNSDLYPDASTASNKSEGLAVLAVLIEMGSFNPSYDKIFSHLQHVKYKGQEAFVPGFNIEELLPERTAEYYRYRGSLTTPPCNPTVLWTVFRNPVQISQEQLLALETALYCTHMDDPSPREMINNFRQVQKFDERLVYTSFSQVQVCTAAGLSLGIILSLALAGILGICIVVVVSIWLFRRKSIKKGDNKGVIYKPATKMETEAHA

As for `C=CCN(c1cc(C)on1)S(=O)(=O)c1ccc(N)cc1` [S2, N-Allyl-4-amino-N-(5-methylisoxazol-3-yl)benzenesulfonamide], the results for the IC50 in series [1] and in series [2] were 0.102 ± 0.006 µM and 0.177 ± 0.008 µM, respectively.
For the compound `CCCN(c1cc(C)on1)S(=O)(=O)c1ccc(N)cc1` [S3, 4-Amino-N-(5-methylisoxazol-3-yl)-N-propylbenzenesulfonamide], the IC50 in series [3] stood at 0.042 nM; in series [1], 0.199 ± 0.011 µM; in series [2], 0.08 ± 0.003 µM.
For the compound `Cc1ccc(C(=O)Nc2ccc(S(=O)(=O)Nc3cc(C)on3)cc2)cc1` [S8, 4-Methyl-N-(4-(N-(5-methylisoxazol-3-yl)sulfamoyl)phenyl)benzamide], in series [4], the IC50 at 48 h was determined as 31.6 ± 1.71 µg/mL (≈ 85.2 µM). Moreover, the IC50 is 1.85 ± 0.12 µM in series [1]; 1.02 ± 0.049 µM in series [2]; 3.64 ± 0.2 µg/mL (≈ 9.8 µM) in series [5] (MCF7, MCF7, hypoxia, read-out: Cytotoxicity (IC50 µg/mL) MCF7 Hypoxia); 7.68 ± 0.41 µg/mL (≈ 20.7 µM) in series [5] (MCF7, MCF7, normoxia, read-out: Cytotoxicity (IC50 µg/mL) MCF7 Normoxia).
In the case of `Cc1cc(NS(=O)(=O)c2ccc(NC(=O)c3ccc(Cl)cc3)cc2)no1` [S9, 4-Chloro-N-(4-(N-(5-methylisoxazol-3-yl)sulfamoyl)phenyl)benzamide], the IC50 at 48 h in series [4] came to 34.7 ± 1.87 µg/mL (≈ 88.6 µM). The “Cytotoxicity (IC50 µg/mL) MCF10a” value in series [6] was 46.72 ± 2.52 µg/mL. The figures for the IC50 in series [1] and in series [2] were 0.543 ± 0.03 µM and 0.121 ± 0.006 µM, respectively.
Turning to `Cc1ccc(/C=C2\SC(Nc3ccc(S(=O)(=O)Nc4cc(C)on4)cc3)=NC2=O)cc1` [S19, (Z)-4-((5-(4-Methylbenzylidene)-4-oxo-4,5-dihydrothiazol-2-yl)amino)-N-(5-methylisoxazol-3-yl)benzenesulfonamide], the IC50 in series [7] was determined as 0.9 nM.
